Results on 20 compounds are retold here after patent publication USRE50082E1, “(5,6-dihydro)pyrimido[4,5-e]indolizines” (NETHERLANDS TRANSLATIONAL RESEARCH CENTER B.V., priority 2014, dated 2024).

Structures are written as SMILES. pIC50: −log10 of the molar value.

The subject of the assay is MOLT-4 cancer cell line. In words: Cell proliferation assay, MOLT-4 cancer cell line (ATPlite).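 Further: luminescence read-out, percent growth versus compound-free DMSO wells as maximum growth, start-of-incubation signal separating growth from cell death, IC50 from logistic curve fit.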 Format: cell-based. The following applies: Homo sapiens, MOLT-4; 72 hours incubation, ATPlite 1Step; read-out: IC50 MOLT-4 cell proliferation. In general terms: In ATP-based viability assays light output follows the ATP content of the culture.

Consider `CCc1n[nH]c(CC)c1NC(=O)c1ccn2c1CCc1cnc(Nc3ccc(OC4CCN(C)CC4)cc3C)nc1-2` [Example 47, N-(3,5-diethyl-1H-pyrazol-4-yl)-2-[2-methyl-4-[(1-methyl-4-piperidyl)oxy]anilino]-5,6-dihydropyrimido[4,5-e]indolizine-7-carboxamide], for which the pIC50 is more than 7.30.

Take `COc1cc(N2CCN(C)CC2)ccc1Nc1ncc2c(n1)-n1ccc(C(=O)Nc3c(C)ccnc3Cl)c1CC2` [Example 25, N-(2-chloro-4-methyl-3-pyridyl)-2-[2-methoxy-4-(4-methylpiperazin-1-yl)anilino]-5,6-dihydropyrimido[4,5-e]indolizine-7-carboxamide]: the pIC50 was 6.82 to 7.30.

In the case of `COc1cc(N2CCOCC2)ccc1Nc1ncc2c(n1)-n1ccc(C(=O)Nc3c(C)cccc3Br)c1CC2` [Example 3, N-(2-bromo-6-methyl-phenyl)-2-(2-methoxy-4-morpholino-anilino)-5,6-dihydropyrimido[4,5-e]indolizine-7-carboxamide], the pIC50 was 6.82 to 7.30.

Consider `COc1cc(OCCN(C)C)ccc1Nc1ncc2c(n1)-n1ccc(C(=O)Nc3c(C)cccc3Br)c1CC2` [Example 51, N-(2-bromo-6-methyl-phenyl)-2-[4-(2-dimethylaminoethyloxy)-2-methoxy-anilino]-5,6-dihydropyrimido[4,5-e]indolizine-7-carboxamide], for which the pIC50 was more than 7.30.

As to `CCc1cccc(C)c1NC(=O)c1ccn2c1CCc1cnc(Nc3ccc(N4CCN(C)CC4)cc3OC)nc1-2` [Example 72, N-(2-ethyl-6-methyl-phenyl)-2-[2-methoxy-4-(4-methylpiperazin-1-yl)anilino]-5,6-dihydropyrimido[4,5-e]indolizine-7-carboxamide], the pIC50 is more than 7.30.

Take `CCc1cccc(C)c1NC(=O)c1ccn2c1CCc1cnc(Nc3ccc(N4CCNCC4)cc3C)nc1-2` [Example 82, N-(2-ethyl-6-methyl-phenyl)-2-(2-methyl-4-piperazin-1-yl-anilino)-5,6-dihydropyrimido[4,5-e]indolizine-7-carboxamide]: the pIC50 was more than 7.30.

Consider `Cc1cc(N2CCN(C)CC2)ccc1Nc1ncc2c(n1)-n1ccc(C(=O)Nc3c(C)cccc3Br)c1CC2` [Example 65, N-(2-bromo-6-methyl-phenyl)-2-[2-methyl-4-(4-methylpiperazin-1-yl)anilino]-5,6-dihydropyrimido[4,5-e]indolizine-7-carboxamide], for which the pIC50 is more than 7.30.

Turning to `Cc1cccc(C)c1NC(=O)c1ccn2c1CCc1cnc(Nc3ccc(N4CCOCC4)nc3C)nc1-2` [Example 68, N-(2,6-dimethylphenyl)-2-[(2-methyl-6-morpholino-3-pyridyl)amino]-5,6-dihydropyrimido[4,5-e]indolizine-7-carboxamide], the pIC50 is more than 7.30.

As to `COCCOCCOCCn1nc(C)c(NC(=O)c2ccn3c2CCc2cnc(Nc4ccc(N(C)CCCN(C)C)cc4OC)nc2-3)c1C` [Example 135, 2-[4-[3-(Dimethylamino)propyl-methyl-amino]-2-methoxy-anilino]-N-[1-[2-[2-(-2-methoxyethoxy)ethoxy]ethyl]-3,5-dimethyl-pyrazol-4-yl]-5,6-dihydropyrimido[4,5-e]indolizine-7-carboxamide], the pIC50 is more than 7.30.

In the case of `CCc1n[nH]c(CC)c1NC(=O)c1ccn2c1CCc1cnc(Nc3ccc(OCCN(C)C)cc3OC)nc1-2` [Example 53, N-(3,5-diethyl-1H-pyrazol-4-yl)-2-[4-(2-dimethylaminoethyloxy)-2-methoxy-anilino]-5,6-dihydropyrimido[4,5-e]indolizine-7-carboxamide], the pIC50 was 6.82 to 7.30.

For `CCOc1cc(C(=O)NC2CCN(C)CC2)ccc1Nc1ncc2c(n1)-n1ccc(C(=O)Nc3c(C)cccc3CC)c1CC2` [Example 14, 2-[2-Ethoxy-4-[(1-methyl-4-piperidyl)carbamoyl]anilino]-N-(2-ethyl-6-methyl-phenyl)-5,6-dihydropyrimido[4,5-e]indolizine-7-carboxamide], the pIC50 is 6.82 to 7.30.

For `CCc1nn(CCOC)c(CC)c1NC(=O)c1ccn2c1CCc1cnc(Nc3ccc(OC4CCN(C)CC4)cc3C)nc1-2` [Example 13, N-[3,5-diethyl-1-(2-methoxyethyl)pyrazol-4-yl]-2-[2-methyl-4-[(1-methyl-4-piperidyl)oxy]anilino]-5,6-dihydropyrimido[4,5-e]indolizine-7-carboxamide], the pIC50 is more than 7.30.

For the compound `COc1cc(C(=O)NCCN2CCCCC2)ccc1Nc1ncc2c(n1)-n1ccc(C(=O)Nc3c(C)cccc3C)c1CC2` [Example 128, N-(2,6-dimethylphenyl)-2-[2-methoxy-4-[2-(1-piperidyl)ethylcarbamoyl]anilino]-5,6-dihydropyrimido[4,5-e]indolizine-7-carboxamide], the pIC50 was 6.82 to 7.30.

Take `COc1cc(N2CCN(C)CC2)ccc1Nc1ncc2c(n1)-n1ccc(C(=O)Nc3c(C)cccc3OC)c1CC2` [Example 10, N-(2-methoxy-6-methyl-phenyl)-2-[2-methoxy-4-(4-methylpiperazin-1-yl)anilino]-5,6-dihydropyrimido[4,5-e]indolizine-7-carboxamide]: the pIC50 was 6.82 to 7.30.

For the compound `CCc1cccc(C)c1NC(=O)c1ccn2c1CCc1cnc(Nc3ccc(N4CCN(C)CC4)cc3)nc1-2` [Example 4, N-(2-ethyl-6-methyl-phenyl)-2-[4-(4-methylpiperazin-1-yl)anilino]-5,6-dihydropyrimido[4,5-e]indolizine-7-carboxamide], the pIC50 is more than 7.30.

With `COCCNC(=O)c1ccc(Nc2ncc3c(n2)-n2ccc(C(=O)Nc4c(C)cccc4C)c2CC3)c(OC)c1` [Example 127, N-(2,6-dimethylphenyl)-2-[2-methoxy-4-(2-methoxyethylcarbamoyl)anilino]-5,6-dihydropyrimido[4,5-e]indolizine-7-carboxamide], the pIC50 is more than 7.30.

Consider `COc1cc(C(=O)NCC(C)(C)O)ccc1Nc1ncc2c(n1)-n1ccc(C(=O)Nc3c(C)cccc3C)c1CC2` [Example 1, N-(2,6-dimethylphenyl)-2-[4-[(2-hydroxy-2-methyl-propyl)carbamoyl]-2-methoxy-anilino]-5,6-dihydropyrimido[4,5-e]indolizine-7-carboxamide], for which the pIC50 is more than 7.30.

`CCc1cccc(CC)c1NC(=O)c1ccn2c1CCc1cnc(Nc3cc(Cl)c(N4CCN(C)CC4)cc3OC)nc1-2` [Example 102, 2-[5-Chloro-2-methoxy-4-(4-methylpiperazin-1-yl)anilino]-N-(2,6-diethylphenyl)-5,6-dihydropyrimido[4,5-e]indolizine-7-carboxamide]: the pIC50 is 6.82 to 7.30.

As for `CCCCS(=O)(=O)N1CCN(c2ccc(Nc3ncc4c(n3)-n3ccc(C(=O)Nc5c(C)cccc5C)c3CC4)c(OC)c2)CC1` [Example 113, 2-[4-(4-Butylsulfonylpiperazin-1-yl)-2-methoxy-anilino]-N-(2,6-dimethylphenyl)-5,6-dihydropyrimido[4,5-e]indolizine-7-carboxamide], the pIC50 is more than 7.30.

`CCc1cccc(CC)c1NC(=O)c1ccn2c1CCc1cnc(Nc3ccc(N4CCN(C)CC4)cc3C)nc1-2` [Example 67, N-(2,6-diethylphenyl)-2-[2-methyl-4-(4-methylpiperazin-1-yl)anilino]-5,6-dihydropyrimido[4,5-e]indolizine-7-carboxamide]: the pIC50 is more than 7.30.
